US9302993B2, “8-hydroxy quinoline derivatives” (PRANA BIOTECHNOLOGY LIMITED, priority 2002, dated 2016)
Several values for one entry are separate records, joined by “and”; a condition that tells them apart may be missing. Equal values may be shown once. Read-outs that look alike come from different tables or passages of the source.

Legend:
[1] = target: T1, hydrogen peroxide generation by Aβ in the presence of copper (Homo sapiens, UniProt P05067); assay: Fluorometric H2O2 assay (Assay 1); type: biochemical; details: DCF/HRP, 37 C 60 min, several values in one cell = repeat determinations
T1 construct: The reaction solutions contained Aβ 1-42 at concentrations in the range of 50 nM to 1 μM
Protocol: Assay 1. Fluorometric H2O2 Assay
A fluorometric assay was used to test the ability of a test compound to inhibit hydrogen peroxide generation by Aβ in the presence of copper based on dichlorofluoroscein diacetate (DCF; Molecular Probes, Eugene Oreg.). The DCF solution (5 mM) in 100% dimethyl sulphoxide (previously purged with argon for 2 hr at 20° C.) was deacetylated in the presence of 0.25M NaOH for 30 min and neutralised at pH 7.4 to a final concentration of 1 mM. Horseradish peroxidase (HRP) stock solution was prepared to 1 μM at pH 7.4. The reactions were carried out in PBS, pH 7.4 in a 96 well plate (total volume=250 μl/well). The reaction solutions contained Aβ 1-42 at concentrations in the range of 50 nM to 1 μM, copper-glycine chelate (Cu-Gly), was prepared by adding CuCl2 to glycine in the ratio of 1:6 and added to the Aβ in the proportion 2Cu-Gly: 1Aβ), reducing agents including dopamine (5 μM) or ascorbic acid, deacetylated DCF 100 μM, and HRP, 0.1 μM. […] The reaction mixture was incubated at 37 C for 60 min. […] H2O2 concentration may be established by comparing fluorescence with the H2O2 standards. Inhibition of AB H2O2 production was assayed by including a given concentration of test compound(s) in the test wells.

Neuronal cortical cells = assay: Assay for test compound cytoxicity, MTS (Assay 3(d)); type: cell-based, mouse; details: BL6J×129sv, mouse, 4 days, 10 uM
Protocol: Media was then replaced with Neurobasal media (Invitrogen Life Technologies) and B27 supplements (Invitrogen Life Technologies). Cultures were maintained at 37° C. in 5% CO2. Prior to experimentation, the culture medium was replaced with Neurobasal media and B27 minus antioxidants (Invitrogen Life Technologies).
Cell viability is determined using the MTS assay. Culture medium is […] replaced with fresh neurobasal medium plus B27 supplements minus antioxidants. 1/10th volume MTS solution (Cell Titre 96 Aqueous One, Promega Corporation) and incubated at 37° C., 2 hrs. 200 microliter aliquots are measured with a spectrophotometer at 560 nm.
(d) Assay for Test Compound Cytoxicity
Neuronal cortical cells were cultured for five days as per Assay 2 in NB media and B27 supplement.
On day six the test compounds were added to the neuronal cell cultures in NB media and B27 supplement minus antioxidants.
Test compounds were dissolved in 100% DMSO to a concentration of 2.5 mM (10 mM if excess compound was weighed out per vial—then diluted to 2.5 mM). […] Test compounds were not added directly to cells, instead they were added to a 48 well ‘Drug Plate’ as comprised below:
The Drug Plate was incubated at 37° C. for 15 mins. 200 ul of each well was added in triplicate to the corresponding cell plate. The cell plate was incubated at 37 C, for 4 days.
On completion of the assay, 1/10 volume MTS was added per well of plate (ie 25 ul/250 ul). The plates were incubated at 37 C for 2 hrs, and then absorbance was read at 560 nm.

[2] = Aβ 1-42 with Cu-Gly, read-out: Peroxide IC50

T1 sequence (P05067 672-713 limits assumed): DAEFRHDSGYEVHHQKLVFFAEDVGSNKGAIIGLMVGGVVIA

With O=C(O)C1OC(Oc2cccc3cccnc23)[C@H](O)[C@@H](O)[C@H]1O (some centres unmarked) [compound 39] the IC50 [1, 2] was 90 µM.
For O=S(=O)(O)c1ccc2cccc(O)c2n1 [compound 50], the IC50 [1, 2] was 90 µM.
Compound O=C(O)c1cc(O)c2cccc(O)c2n1 [compound 52] has an IC50 ([1]; Peroxide IC50, Aβ 1-42 with Cu-Gly) of over 100 µM.
Work on O=C(O)c1ccc2cccc(O)c2n1 [compound 57] yielded an IC50 [1, 2] of 40 µM.
OCC1OC(Oc2cccc3cccnc23)[C@H](O)[C@@H](O)[C@H]1O (some centres unmarked) [compound 62] showed an IC50 [1, 2] of over 10 µM.
In the case of Oc1ccc(CCc2ccc3cccc(O)c3n2)cc1 [compound 91], the IC50 [1, 2] is reported as 50 µM and > 10 µM.
For COc1ccc(-c2cc(Cl)c3cccnc3c2OC(C)C)cc1 [compound 800], the IC50 [1, 2] was over 10 µM.
COc1cccc(-c2cc(Cl)c3cccnc3c2OC(C)C)c1 [compound 801] gave an IC50 [1, 2] of over 10 µM.
In the case of CC(C)Oc1c(-c2ccc(F)cc2)cc(Cl)c2cccnc12 [compound 802], the IC50 [1, 2] is reported as over 10 µM.
Work on CC(C)Oc1c(-c2ccccc2F)cc(Cl)c2cccnc12 [compound 803] yielded an IC50 [1, 2] of over 10 µM.
CC(C)Oc1c(I)cc(Cl)c2cccnc12 [compound 804] was tested, and the IC50 [1, 2] was over 10 µM.
Compound Cc1ccccc1-c1cc(Cl)c2c(-c3ccccc3C)ccnc2c1OC(C)C [compound 805] has an IC50 [1, 2] of over 10 µM.
CC(C)Oc1c(I)cc(I)c2cccnc12 [compound 807] was tested, and the IC50 [1, 2] was over 10 µM.
In the case of Oc1c(-c2ccccc2)cc(Cl)c2cccnc12 [compound 808], the IC50 [1, 2] is reported as over 10 µM and the “Viable 10 uM” value (Neuronal cortical cells) is reported as 71.89.
With O=[N+]([O-])c1cccc(-c2cc(Cl)c3cccnc3c2O)c1 [compound 811] the IC50 [1, 2] was over 10 µM and the “Viable 10 uM” value (Neuronal cortical cells) was 78.46.
Oc1c(-c2ccc(F)cc2)cc(Cl)c2cccnc12 [compound 812] was tested, and the IC50 [1, 2] was over 10 µM and the “Viable 10 uM” value (Neuronal cortical cells) was 75.36.
Oc1c(-c2cc(F)cc(F)c2)cc(Cl)c2cccnc12 [compound 813] was tested, and the IC50 [1, 2] was over 10 µM and the “Viable 10 uM” value (Neuronal cortical cells) was 66.
With COc1ccc(-c2cc(Cl)c3cccnc3c2O)cc1 [compound 814] the “Viable 10 uM” value (Neuronal cortical cells) was 31.13.
In the case of Oc1c(-c2ccccc2F)cc(Cl)c2cccnc12 [compound 815], the IC50 [1, 2] is reported as over 10 µM and the “Viable 10 uM” value (Neuronal cortical cells) is reported as 53.68.
In the case of CC(C)Oc1c(F)cc(-c2ccccc2)c2cccnc12 [compound 816], the IC50 [1, 2] is reported as over 10 µM.
With CC(C)Oc1c(F)cc(-c2cc(F)cc(F)c2)c2cccnc12 [compound 817] the IC50 [1, 2] was over 10 µM.
CC(C)Oc1c(-c2ccccc2)cc(Cl)c2cccnc12 [compound 818] was tested, and the IC50 [1, 2] was over 10 µM.
Work on COc1ccccc1-c1cc(Cl)c2cccnc2c1OC(C)C [compound 819] yielded an IC50 [1, 2] of over 10 µM.
CC(C)Oc1c(-c2cc(F)cc(F)c2)cc(Cl)c2cccnc12 [compound 820] gave an IC50 [1, 2] of over 10 µM.
Brc1ccc(OCc2ccccc2)c2ncccc12 [compound 821] gave an IC50 [1, 2] of over 10 µM.
For CC(=O)Oc1ccc(-c2cc(Cl)c3cccnc3c2OC(C)C)s1 [compound 822], the IC50 [1, 2] was over 10 µM.
With CC(C)Oc1c(I)cc(-c2ccc(C(F)(F)F)cc2)c2cccnc12 [compound 823] the IC50 [1, 2] was over 10 µM.
For COc1ccccc1-c1cc(-c2ccccc2OC)c2cccnc2c1OC(C)C [compound 824], the IC50 [1, 2] was over 10 µM.
Work on COc1ccccc1-c1cc(I)c(OC(C)C)c2ncccc12 [compound 825] yielded an IC50 [1, 2] of over 10 µM.
Compound Cc1ccccc1-c1cc(I)c(OC(C)C)c2ncccc12 [compound 826] has an IC50 [1, 2] of over 10 µM.
With CC(C)Oc1c(-c2ccccc2C(F)(F)F)cc(Cl)c2cccnc12 [compound 827] the IC50 [1, 2] was over 10 µM.
In the case of O=Cc1ccccc1-c1cc(Cl)c2cccnc2c1O [compound 849], the IC50 [1, 2] is reported as 4.5 µM and the “Viable 10 uM” value (Neuronal cortical cells) is reported as 98.83.
Oc1c(-c2cccc(F)c2)cc(Cl)c2cccnc12 [compound 850] was tested, and the IC50 [1, 2] was over 10 µM and the “Viable 10 uM” value (Neuronal cortical cells) was 71.28.
In the case of c1ccc(COc2cccc3cccnc23)cc1 [compound 855], the IC50 [1, 2] is reported as over 10 µM.
With CC(C)Oc1c(I)cc(-c2ccccc2F)c2cccnc12 [compound 856] the IC50 [1, 2] was over 10 µM.
In the case of CC(C)Oc1c(-c2cccc([N+](=O)[O-])c2)cc(Cl)c2cccnc12 [compound 857], the IC50 [1, 2] is reported as over 10 µM.
CC(C)Oc1c(-c2cccc(F)c2)cc(Cl)c2cccnc12 [compound 858] gave an IC50 [1, 2] of over 10 µM.
Oc1c(I)cc(-c2ccccc2F)c2cccnc12 [compound 865] was tested, and the IC50 [1, 2] was over 10 µM and the “Viable 10 uM” value (Neuronal cortical cells) was 34.07.
With Cc1ccccc1-c1cc(Cl)c2cccnc2c1OC(C)C [compound 866] the IC50 [1, 2] was over 10 µM.
Work on CC(C)Oc1c(-c2ccccc2C=O)cc(Cl)c2cccnc12 [compound 867] yielded an IC50 [1, 2] of over 10 µM.
CC(C)Oc1c(-c2ccc(N(C)C)cc2)cc(Cl)c2cccnc12 [compound 868] showed an IC50 [1, 2] of over 10 µM.
O=C(O)CNC(=O)c1ccc2cccc(O)c2n1 [compound 956] was tested, and the IC50 [1, 2] was over 10 µM and the “Viable 10 uM” value (Neuronal cortical cells) was 89.
In the case of Oc1cccc2ccc(-n3cccn3)nc12 [compound 964, 2-pyrazol-1-yl-quinolin-8-ol], the IC50 [1, 2] is reported as 7.1 µM.
For Oc1cccc2ccc(-n3ccnc3)nc12 [compound 965], the IC50 [1, 2] was over 10 µM.
With CC(=O)NCc1ccc2cccc(O)c2n1 [compound 967] the IC50 [1, 2] was 7.8 µM and the “Viable 10 uM” value (Neuronal cortical cells) was 90.69.
Oc1c(-c2cc3ccccc3s2)cc(Cl)c2cccnc12 [compound 970] was tested, and the IC50 [1, 2] was 6.7 µM and the “Viable 10 uM” value (Neuronal cortical cells) was 32.33.
With Oc1c(-c2cc(Cl)c3cccnc3c2O)cc(Cl)c2cccnc12 [compound 971] the IC50 [1, 2] was over 10 µM and the “Viable 10 uM” value (Neuronal cortical cells) was 84.29.
For Oc1c(-c2ccsc2)cc(Cl)c2cccnc12 [compound 972], the IC50 [1, 2] was over 10 µM and the “Viable 10 uM” value (Neuronal cortical cells) was 30.59.
In the case of Oc1c(-c2ccc(F)cc2F)cc(Cl)c2cccnc12 [compound 973], the IC50 [1, 2] is reported as over 10 µM and the “Viable 10 uM” value (Neuronal cortical cells) is reported as 42.38.
For O=C(O)CNC(=O)c1cc(O)c2cccc(O)c2n1 [compound 992], the IC50 [1, 2] was over 10 µM.
In the case of Cc1nccn1-c1ccc2cccc(O)c2n1 [compound 993], the IC50 [1, 2] is reported as over 10 µM.
In the case of CCOC(=O)c1ccccc1-c1ccc2cccc(O)c2n1 [compound 1004], the IC50 [1, 2] is reported as > 10 µM and 6.6 µM.
O=C(NCc1nccs1)c1ccc2cccc(O)c2n1 [compound 1019] was tested, and the IC50 [1, 2] was over 10 µM.
For COc1cccc2ccc(C(=O)NCCc3ccccn3)nc12 [compound 1022], the IC50 [1, 2] was over 10 µM.
Work on CC(=O)Nc1ccc(O)c2ncccc12 [compound 1028] yielded an IC50 [1, 2] of 0.32 µM.
Work on Oc1ccc(F)c2cccnc12 [compound 1034] yielded an IC50 [1, 2] of 0.44 µM.
O=S(=O)(NCCc1c[nH]cn1)c1ccc2cccc(O)c2n1 [compound 1035] was tested, and the IC50 [1, 2] was over 10 µM.
Work on Oc1cccc2cc3ccccc3nc12 [compound 1043] yielded an IC50 [1, 2] of 0.64 µM.
CNc1ccc2c(Cl)cc(Cl)c(O)c2n1 [compound 1047, 5,7-Dichloro-2-methylamino-8-hydroxyquinoline] showed an IC50 [1, 2] of over 10 µM.
Work on Nc1cnc2c(O)c(Cl)cc(Cl)c2c1 [compound 1060, 3-amino-5,7-dichloro-8-hydroxyquinoline] yielded an IC50 [1, 2] of 0.5 µM.
